{"source": "patent US20060135422A1", "about": "“Use of angiotensin receptor blockers (ARBs) to treat diseases associated with excess ACE” (priority 2003, published 2006)", "key": {"tACE": {"target": "tACE (Homo sapiens, UniProt P12821)", "sequence (P12821 other isoform, or with tags, fused parts or gaps)": "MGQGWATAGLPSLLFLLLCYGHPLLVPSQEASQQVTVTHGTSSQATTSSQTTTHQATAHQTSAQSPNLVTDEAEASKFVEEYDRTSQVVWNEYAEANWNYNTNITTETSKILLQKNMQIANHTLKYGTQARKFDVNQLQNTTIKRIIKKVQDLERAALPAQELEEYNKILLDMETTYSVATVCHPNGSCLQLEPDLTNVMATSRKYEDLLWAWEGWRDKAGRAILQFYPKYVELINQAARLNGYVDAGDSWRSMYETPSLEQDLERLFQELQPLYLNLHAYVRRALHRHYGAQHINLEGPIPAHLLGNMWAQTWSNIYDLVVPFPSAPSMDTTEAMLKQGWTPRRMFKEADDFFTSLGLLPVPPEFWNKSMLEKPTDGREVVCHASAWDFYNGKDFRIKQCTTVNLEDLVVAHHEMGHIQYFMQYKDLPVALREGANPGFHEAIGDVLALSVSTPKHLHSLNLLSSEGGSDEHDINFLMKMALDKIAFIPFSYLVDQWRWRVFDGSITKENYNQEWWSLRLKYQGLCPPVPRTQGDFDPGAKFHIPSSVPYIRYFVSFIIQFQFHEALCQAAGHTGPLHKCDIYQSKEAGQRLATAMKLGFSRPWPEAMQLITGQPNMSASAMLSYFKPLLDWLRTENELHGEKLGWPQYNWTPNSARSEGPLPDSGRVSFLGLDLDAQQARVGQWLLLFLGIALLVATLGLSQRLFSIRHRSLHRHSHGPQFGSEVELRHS", "details": "cited from earlier work"}, "[1]": {"details": "cited from earlier work"}, "ACE [2]": {"target": "T1, ACE (Homo sapiens, UniProt P12821)", "T1 sequence (P12821 30-1306)": "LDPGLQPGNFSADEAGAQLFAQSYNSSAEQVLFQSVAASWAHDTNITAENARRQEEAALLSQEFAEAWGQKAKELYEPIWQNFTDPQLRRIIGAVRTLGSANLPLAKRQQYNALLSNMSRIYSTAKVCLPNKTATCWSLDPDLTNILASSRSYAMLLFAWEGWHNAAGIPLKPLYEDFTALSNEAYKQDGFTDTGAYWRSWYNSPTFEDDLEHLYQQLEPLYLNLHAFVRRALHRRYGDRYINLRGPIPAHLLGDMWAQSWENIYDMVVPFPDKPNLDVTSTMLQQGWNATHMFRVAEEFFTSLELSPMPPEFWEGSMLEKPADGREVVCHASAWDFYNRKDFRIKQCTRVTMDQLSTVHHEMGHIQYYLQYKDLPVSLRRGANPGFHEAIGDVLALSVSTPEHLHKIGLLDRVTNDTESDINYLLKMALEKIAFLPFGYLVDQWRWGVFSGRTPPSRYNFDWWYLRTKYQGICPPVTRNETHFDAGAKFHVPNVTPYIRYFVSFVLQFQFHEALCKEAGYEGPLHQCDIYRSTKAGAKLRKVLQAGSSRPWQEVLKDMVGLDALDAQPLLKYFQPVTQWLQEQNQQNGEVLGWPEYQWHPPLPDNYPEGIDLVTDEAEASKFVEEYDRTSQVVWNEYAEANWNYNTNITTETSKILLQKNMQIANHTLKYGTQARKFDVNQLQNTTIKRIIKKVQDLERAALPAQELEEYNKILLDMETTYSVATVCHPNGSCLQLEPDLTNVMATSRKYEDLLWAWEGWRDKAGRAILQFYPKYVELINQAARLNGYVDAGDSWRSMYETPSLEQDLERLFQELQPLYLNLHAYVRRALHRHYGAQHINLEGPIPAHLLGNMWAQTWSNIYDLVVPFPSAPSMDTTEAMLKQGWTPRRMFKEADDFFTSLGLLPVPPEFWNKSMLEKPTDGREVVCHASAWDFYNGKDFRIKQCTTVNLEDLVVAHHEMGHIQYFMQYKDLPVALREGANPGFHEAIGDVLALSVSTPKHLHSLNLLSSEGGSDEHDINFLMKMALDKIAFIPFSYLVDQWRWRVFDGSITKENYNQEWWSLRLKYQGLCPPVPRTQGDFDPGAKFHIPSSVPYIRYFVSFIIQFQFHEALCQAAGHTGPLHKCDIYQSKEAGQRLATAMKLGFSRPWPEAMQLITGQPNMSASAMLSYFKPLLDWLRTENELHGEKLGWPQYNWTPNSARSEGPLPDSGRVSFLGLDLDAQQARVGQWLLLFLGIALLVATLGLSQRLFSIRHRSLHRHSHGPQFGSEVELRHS", "details": "binding affinity, from [27]; cited from earlier work"}, "ACE [3]": {"target": "T1, ACE", "details": "cited from earlier work"}, "[4]": {"test_system": "West Nile virus encephalitis", "assay": "case series: West Nile virus encephalitis treated with angiotensin II receptor blockade", "type": "in vivo, human", "details": "for clinical outcome: patient 8, person with chronic lymphocytic leukemia, intravenous enalapril then losartan 50 mg daily", "protocol": "Table 2. […] A person with past history of tremors was admitted with fever, stiff neck, severe confusion, and gross tremors to a hospital in Omaha, Nebr. one night. Their serum was positive for IgM reactive to West Nile virus. They were begun on olmesartan 20 mg daily. […] They were discharged home on olmesartan 20 mg daily. • 2. A person with hypertension treated with a beta-blocker/thiazide combination drug, was admitted to a hospital in Omaha, Nebr. with right leg paralysis and paresthesias and weakness in their left leg. Their serum was positive for IgM reactive to West Nile virus. They were begun on losartan 50 mg daily. […] A person with a history of seizures was admitted one night to a hospital in Omaha, Nebr. with a fever and a grand mal seizure. They had been taking olmesartan 20 mg daily for mild hypertension. Their serum was positive for IgM reactive to West Nile virus. […] Their usual dose of olmesartan 20 mg daily was resumed thereafter. […] A person was admitted with fever, stiff neck, and severe confusion to a hospital in Omaha, Nebr. Their serum was positive for IgM antibodies reactive to West Nile virus. They were begun on losartan 50 mg daily. […] A person was admitted with fever, stiff neck, and severe confusion to a hospital in Omaha, Nebr. Their serum was positive for IgM antibodies reactive to West Nile virus. They were begun on losartan 50 mg daily. […] A person was admitted with fever, stiff neck, and severe confusion to a hospital in Pueblo, CO. Their serum was positive for IgM antibodies reactive to West Nile virus. They were begun on losartan 50 mg daily. […] A person with chronic lymphocytic leukemia was admitted with fever and obtundation to a hospital in Pueblo, CO. Their serum was positive by EIA for West Nile virus antibodies. […] Head CT and MRI scans were negative."}, "serum ACE": {"target": "T2, serum ACE (Homo sapiens, UniProt P12821)", "T2 construct": "host or cells: serum", "T2 sequence (P12821 30-1232)": "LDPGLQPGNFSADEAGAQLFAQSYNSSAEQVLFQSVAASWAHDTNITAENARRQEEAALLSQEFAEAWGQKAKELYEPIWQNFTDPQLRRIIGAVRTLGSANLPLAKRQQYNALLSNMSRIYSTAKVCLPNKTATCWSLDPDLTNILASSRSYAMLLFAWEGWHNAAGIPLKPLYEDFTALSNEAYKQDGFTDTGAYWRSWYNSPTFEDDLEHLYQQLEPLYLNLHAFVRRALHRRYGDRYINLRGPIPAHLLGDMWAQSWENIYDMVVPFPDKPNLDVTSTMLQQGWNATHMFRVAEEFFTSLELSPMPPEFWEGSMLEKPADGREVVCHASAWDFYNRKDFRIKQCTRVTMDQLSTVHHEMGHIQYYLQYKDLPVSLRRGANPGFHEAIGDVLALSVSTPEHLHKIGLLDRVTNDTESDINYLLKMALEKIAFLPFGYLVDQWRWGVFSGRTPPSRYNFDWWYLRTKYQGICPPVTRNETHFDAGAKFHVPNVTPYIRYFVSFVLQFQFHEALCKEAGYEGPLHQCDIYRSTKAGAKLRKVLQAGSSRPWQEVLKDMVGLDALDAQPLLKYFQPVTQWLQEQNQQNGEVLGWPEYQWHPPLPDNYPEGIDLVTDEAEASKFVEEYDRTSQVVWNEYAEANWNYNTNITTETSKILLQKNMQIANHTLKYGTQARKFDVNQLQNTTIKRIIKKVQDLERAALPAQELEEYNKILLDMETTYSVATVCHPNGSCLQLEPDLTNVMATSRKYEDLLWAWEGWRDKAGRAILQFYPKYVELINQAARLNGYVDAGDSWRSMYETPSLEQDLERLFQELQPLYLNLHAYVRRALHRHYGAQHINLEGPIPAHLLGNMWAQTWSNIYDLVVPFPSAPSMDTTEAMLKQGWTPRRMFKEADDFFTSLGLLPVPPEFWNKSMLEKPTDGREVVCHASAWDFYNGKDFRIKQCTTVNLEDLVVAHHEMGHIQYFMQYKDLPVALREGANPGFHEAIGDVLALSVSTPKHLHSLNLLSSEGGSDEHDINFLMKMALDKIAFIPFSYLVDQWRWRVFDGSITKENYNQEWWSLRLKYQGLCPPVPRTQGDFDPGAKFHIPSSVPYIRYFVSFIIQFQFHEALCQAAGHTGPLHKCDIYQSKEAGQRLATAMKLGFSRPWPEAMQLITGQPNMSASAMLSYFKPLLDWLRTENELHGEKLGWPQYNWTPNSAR", "details": "cited from earlier work"}, "psoriasis": {"test_system": "psoriasis", "type": "in vivo, human", "details": "one person with type II diabetes, quinapril 200 mg/day (2 mg/kg/day); could stop daily methotrexate 75 mg"}, "[5]": {"test_system": "unresectable pancreatic cancer", "assay": "case report: unresectable pancreatic cancer, quinapril added", "type": "in vivo, human", "details": "person, 5-FU and Naitrexone since February 2002, quinapril (60 mg) since November 2002; median survival of similar patients less than 4 months"}, "chronic renal failure": {"test_system": "chronic renal failure", "details": "clinical comparison, from [20]; cited from earlier work"}, "pulmonary hypertension": {"test_system": "pulmonary hypertension", "details": "clinical comparison, from [20,22]; cited from earlier work"}, "alopecia areata": {"test_system": "alopecia areata", "assay": "case reports: alopecia areata treated with an ARB", "type": "in vivo, human"}, "[6]": {"type": "in vivo, human", "details": "40 mg po qhs; reduced from 98 mm Hg", "protocol": "Because many patients with an autoimmune disease such as alopecia greata, psoriasis, rheumatoid arthritis, multiple sclerosis, etc. are normotensive or even relatively hypotensive, an ACE inhibitor may not be the best choice for them. They might not be able to tolerate a sufficiently high dose of an ACE inhibitor, certainly any dose approaching 2 mg/kg/day. Instead, an AT1 receptor blocker appears to be effective at doses which cause minimal blood pressure (BP) reduction. […]"}, "[7]": {"details": "pH 7.4, active moiety, calculated from [23]"}, "[8]": {"details": "pH 7.4, active moiety, calculated from [24]"}, "[9]": {"details": "patient 2, losartan 50 mg daily"}}, "note": "Entries after “also recorded” stand apart in the source; their conditions may differ. Read-outs that look alike come from different tables or passages of the source.", "data": [{"smiles": "O[C@H](CS)[C@H](O)CS", "note": "(racemic) [dithiothreitol]", "values": [{"measurement": "inhibition of tACE's activity", "setting": "tACE", "value": 78, "unit": "%"}]}, {"smiles": "O=C(O)CN1C(=O)[C@@H](N[C@@H](CCc2ccccc2)C(=O)O)CCc2ccccc21", "note": "[Benazeprilat]", "values": [{"measurement": "P(octanol:water)", "setting": "[1]; [7]", "value": 3.0}]}, {"smiles": "C[C@H](CS)C(=O)N1CCC[C@H]1C(=O)O", "note": "[Captopril]", "values": [{"measurement": "P(octanol:water)", "setting": "[1]; [7]", "value": 0.01}, {"measurement": "P(octanol:water)", "setting": "[1]; [8]", "value": 0.004}]}, {"smiles": "NCCCC[C@H](OP(=O)(O)CCCCc1ccccc1)C(=O)N1CCC[C@H]1C(=O)O", "note": "[Ceronapril]", "values": [{"measurement": "P(octanol:water)", "setting": "[1]; [8]", "value": "<0.001"}]}, {"smiles": "O=C(O)[C@H](CCc1ccccc1)N[C@H]1CCCN2CCC[C@@H](C(=O)O)N2C1=O", "note": "[Cilazaprilat]", "values": [{"measurement": "P(octanol:water)", "setting": "[1]; [7]", "value": 1.7}]}, {"smiles": "O=C(O)[C@@H]1C[C@@H](C2CCCCC2)CN1C(=O)CP(=O)(O)CCCCc1ccccc1", "note": "[Fosinoprilat]", "values": [{"measurement": "P(octanol:water)", "setting": "[1]; [8]", "value": 0.33}]}, {"smiles": "CCC[C@H](N[C@@H](C)C(=O)N1[C@H](C(=O)O)C[C@@H]2CCCC[C@@H]21)C(=O)O", "note": "[Perindoprilat]", "values": [{"measurement": "P(octanol:water)", "setting": "[1]; [7]", "value": 0.44}]}, {"smiles": "C[C@H](N[C@@H](CCc1ccccc1)C(=O)O)C(=O)N1Cc2ccccc2C[C@H]1C(=O)O", "note": "[Quinaprilat]", "values": [{"measurement": "P(octanol:water)", "setting": "[1]; pH 7.4", "value": 6.6}]}, {"smiles": "C[C@H](N[C@@H](CCc1ccccc1)C(=O)O)C(=O)N1[C@H](C(=O)O)C[C@@H]2CCC[C@@H]21", "note": "[Ramiprilat]", "values": [{"measurement": "IC50", "setting": "ACE [2]", "value": 0.67, "unit": "nM"}, {"measurement": "P(octanol:water)", "setting": "[1]; [7]", "value": 2.6}, {"measurement": "P(octanol:water)", "setting": "[1]; [8]", "value": 0.011}]}, {"smiles": "C[C@H](N[C@@H](CCc1ccccc1)C(=O)O)C(=O)N1[C@H](C(=O)O)C[C@H]2CCCC[C@@H]21", "note": "[Trandolaprilat]", "values": [{"measurement": "P(octanol:water)", "setting": "[1]; [7]", "value": 10.47}]}, {"smiles": "C[C@H](CS)C(=O)N1C[C@@H](Sc2ccccc2)C[C@H]1C(=O)O", "note": "[Zofenoprilat]", "values": [{"measurement": "P(octanol:water)", "setting": "[1]; [8]", "value": 0.22}]}, {"smiles": "CCOC(=O)[C@H](CCc1ccccc1)N[C@@H](C)C(=O)N1CCC[C@H]1C(=O)O", "note": "[enalapril]", "values": [{"measurement": "off time", "setting": "ACE [3]", "value": 4, "unit": "h"}, {"measurement": "clinical outcome", "setting": "[4]", "value": "remained in coma"}, {"measurement": "inhibition of serum ACE activity", "setting": "serum ACE", "value": "about 50%"}]}, {"smiles": "CCCCc1nc(Cl)c(CO)n1Cc1ccc(-c2ccccc2-c2nn[nH]n2)cc1", "note": "[losartan]", "values": [{"measurement": "right leg paralysis", "setting": "[4]; [9]", "value": "no change"}, {"measurement": "time until paresthesias and weakness in left leg stopped", "setting": "[4]; [9]", "value": "1 to 2", "unit": "days"}, {"measurement": "time to full recovery", "setting": "[4]; patient 3, losartan 50 mg twice in first 24 hr, usual olmesartan 20 mg daily resumed thereafter", "value": "≤ 12", "unit": "h"}, {"measurement": "time until meningoencephalitis disappeared", "setting": "[4]; patient 4, losartan 50 mg daily", "value": "≤ 48", "unit": "h"}, {"measurement": "time until meningoencephalitis disappeared", "setting": "[4]; patient 5, losartan 50 mg daily", "value": "≤ 48", "unit": "h"}, {"measurement": "time until meningoencephalitis disappeared", "setting": "[4]; patient 6, losartan 50 mg daily", "value": "≤ 24", "unit": "h"}, {"measurement": "time until disappearance of residual weakness and fatigue", "setting": "[4]; patient 7, one month after meningoencephalitis, losartan 50 mg daily", "value": "≤ 24", "unit": "h"}, {"measurement": "clinical outcome", "setting": "[4]", "value": "remained in coma"}]}, {"smiles": "CCOC(=O)[C@H](CCc1ccccc1)N[C@@H](C)C(=O)N1Cc2ccccc2C[C@H]1C(=O)O", "note": "[quinapril]", "values": [{"measurement": "response of psoriasis", "setting": "psoriasis", "value": "put the patient's psoriasis into remission; also recorded: responded dramatically"}, {"measurement": "survival", "setting": "[5]", "value": "still alive in November, 2003"}, {"measurement": "off time", "setting": "ACE [3]", "value": 24, "unit": "h"}, {"measurement": "effectiveness at delaying the progression of chronic renal failure", "setting": "chronic renal failure", "value": "more effective than ramipril"}]}, {"smiles": "CCOC(=O)[C@H](CCc1ccccc1)N[C@@H](C)C(=O)N1[C@H](C(=O)O)C[C@@H]2CCC[C@@H]21", "note": "[ramipril]", "values": [{"measurement": "off time", "setting": "ACE [3]; from [28-30]", "value": 24, "unit": "h"}, {"measurement": "inhibition of serum ACE activity", "setting": "serum ACE; from [20]", "value": "~100", "unit": "%"}, {"measurement": "effectiveness at lowering pulmonary hypertension", "setting": "pulmonary hypertension", "value": "more effective at lowering pulmonary hypertension than enlapril"}]}, {"smiles": "CCCCC(=O)N(Cc1ccc(-c2ccccc2-c2nnn[nH]2)cc1)[C@H](C(=O)O)C(C)C", "note": "[valsartan]", "values": [{"measurement": "time until scalp hair loss resumed after stopping the ARB", "setting": "alopecia areata; ARB stopped after 1 week, same patient", "value": "3 to 4", "unit": "days"}, {"measurement": "time until hair loss stopped after starting the ARB", "setting": "alopecia areata; active alopecia areata, child, 40 mg po qhs, n=1", "value": "≤ 36", "unit": "h"}, {"measurement": "time for valsartan to have an effect", "setting": "alopecia areata; more chronic form of alopecia areata, n=1", "value": "more than 5 days"}, {"measurement": "systolic BP on treatment", "setting": "[6]", "value": 90, "unit": "mm Hg"}]}]}
